Laboratory results reported in ChEMBL document CHEMBL5042492, “Noncovalent CDK12/13 dual inhibitors-based PROTACs degrade CDK12-Cyclin K complex and induce synthetic lethality with PARP inhibitor” (Eur J Med Chem, 2022).
The source made the active and inactive calls. The calls are words filed in the database; no cut-off is given here.

Legend:
[1] = target: T1, Protein cereblon/Cyclin-K/Cyclin-dependent kinase 12 (Homo sapiens, UniProt O75909+Q9NYV4+Q96SW2); assay: Protac activity at human CRBN/CDK12/CycK in human MDA-MB-231(CRBN/KO) cells assessed as degradation of CDK12 measured after 24 hrs by Western blotting assay; assay type: cell-based
T1 sequence (O75909 whole entry, looked up): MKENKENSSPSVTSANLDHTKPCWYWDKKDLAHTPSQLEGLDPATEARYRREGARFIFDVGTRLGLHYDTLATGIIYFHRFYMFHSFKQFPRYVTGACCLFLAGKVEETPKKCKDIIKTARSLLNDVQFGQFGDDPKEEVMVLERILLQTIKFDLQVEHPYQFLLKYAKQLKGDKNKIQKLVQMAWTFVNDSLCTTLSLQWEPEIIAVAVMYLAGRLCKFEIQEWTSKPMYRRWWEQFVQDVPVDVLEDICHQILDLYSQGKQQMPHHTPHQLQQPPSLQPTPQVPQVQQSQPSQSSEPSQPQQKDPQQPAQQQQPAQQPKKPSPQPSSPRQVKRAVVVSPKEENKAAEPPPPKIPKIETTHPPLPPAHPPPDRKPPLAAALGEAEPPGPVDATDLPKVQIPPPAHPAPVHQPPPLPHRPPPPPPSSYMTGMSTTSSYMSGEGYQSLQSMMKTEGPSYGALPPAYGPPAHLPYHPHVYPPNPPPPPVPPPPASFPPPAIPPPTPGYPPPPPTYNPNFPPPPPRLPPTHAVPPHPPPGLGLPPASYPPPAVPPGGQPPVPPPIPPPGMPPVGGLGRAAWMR
T1 sequence (Q96SW2 whole entry, looked up): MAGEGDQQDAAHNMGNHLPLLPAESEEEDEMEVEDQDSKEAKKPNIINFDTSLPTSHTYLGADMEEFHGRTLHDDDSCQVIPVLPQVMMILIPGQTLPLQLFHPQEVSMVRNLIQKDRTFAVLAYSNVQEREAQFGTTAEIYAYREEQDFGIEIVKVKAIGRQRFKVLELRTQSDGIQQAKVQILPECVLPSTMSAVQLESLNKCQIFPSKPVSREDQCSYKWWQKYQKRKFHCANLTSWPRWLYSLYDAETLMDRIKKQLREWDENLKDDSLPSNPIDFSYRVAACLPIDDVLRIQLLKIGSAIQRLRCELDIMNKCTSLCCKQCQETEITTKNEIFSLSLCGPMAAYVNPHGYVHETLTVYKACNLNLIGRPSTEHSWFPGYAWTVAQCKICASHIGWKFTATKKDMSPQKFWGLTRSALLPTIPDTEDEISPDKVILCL
T1 sequence (Q9NYV4 whole entry, looked up): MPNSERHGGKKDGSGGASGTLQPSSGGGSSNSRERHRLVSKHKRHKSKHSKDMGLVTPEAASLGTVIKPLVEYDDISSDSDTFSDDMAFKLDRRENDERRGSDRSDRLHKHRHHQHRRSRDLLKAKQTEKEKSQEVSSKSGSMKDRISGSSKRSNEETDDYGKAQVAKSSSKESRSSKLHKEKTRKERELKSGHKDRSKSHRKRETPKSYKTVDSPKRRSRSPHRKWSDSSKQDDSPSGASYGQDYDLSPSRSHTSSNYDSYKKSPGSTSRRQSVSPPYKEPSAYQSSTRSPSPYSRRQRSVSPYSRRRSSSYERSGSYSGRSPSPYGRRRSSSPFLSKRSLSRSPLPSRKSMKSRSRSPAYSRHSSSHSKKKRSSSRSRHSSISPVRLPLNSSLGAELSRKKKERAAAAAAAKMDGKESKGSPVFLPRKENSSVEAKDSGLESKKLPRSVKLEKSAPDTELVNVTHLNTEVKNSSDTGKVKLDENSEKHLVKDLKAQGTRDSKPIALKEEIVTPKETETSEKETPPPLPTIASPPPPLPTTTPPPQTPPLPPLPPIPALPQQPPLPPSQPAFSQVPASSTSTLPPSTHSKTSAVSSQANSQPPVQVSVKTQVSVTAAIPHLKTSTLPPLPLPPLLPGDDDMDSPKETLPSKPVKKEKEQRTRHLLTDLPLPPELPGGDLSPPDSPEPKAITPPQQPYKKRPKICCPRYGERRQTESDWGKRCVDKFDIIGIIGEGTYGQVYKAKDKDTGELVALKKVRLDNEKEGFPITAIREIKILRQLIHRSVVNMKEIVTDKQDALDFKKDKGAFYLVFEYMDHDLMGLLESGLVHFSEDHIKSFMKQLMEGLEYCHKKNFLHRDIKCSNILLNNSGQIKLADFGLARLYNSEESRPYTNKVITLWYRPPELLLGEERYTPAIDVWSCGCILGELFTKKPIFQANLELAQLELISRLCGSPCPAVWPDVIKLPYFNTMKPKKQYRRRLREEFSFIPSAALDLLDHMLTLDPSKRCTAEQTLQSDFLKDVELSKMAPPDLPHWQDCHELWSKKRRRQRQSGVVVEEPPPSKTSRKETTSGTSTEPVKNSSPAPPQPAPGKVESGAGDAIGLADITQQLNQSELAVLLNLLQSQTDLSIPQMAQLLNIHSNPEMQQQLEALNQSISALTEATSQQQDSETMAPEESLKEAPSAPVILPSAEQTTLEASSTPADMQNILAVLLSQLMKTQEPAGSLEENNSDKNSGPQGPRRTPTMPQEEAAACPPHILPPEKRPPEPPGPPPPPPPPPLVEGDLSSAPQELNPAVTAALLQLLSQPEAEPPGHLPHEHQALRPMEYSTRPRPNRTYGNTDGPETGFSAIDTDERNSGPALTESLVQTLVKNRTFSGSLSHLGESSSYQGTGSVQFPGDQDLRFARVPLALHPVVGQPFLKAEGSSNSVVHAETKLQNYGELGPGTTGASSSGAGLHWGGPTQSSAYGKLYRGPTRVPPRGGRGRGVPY

[2] = target: T2, CDK12/Cyclin K (Homo sapiens) (UniProt O75909+Q9NYV4); assay: Protac activity at human CDK12/CycK in human MDA-MB-231 (CRBN/WT) cells assessed as degradation of CDK12 measured after 24 hrs by Western blotting assay; assay type: cell-based
T2 sequence (O75909 whole entry, looked up): as the sequence (O75909 whole entry, looked up) above
T2 sequence (Q9NYV4 whole entry, looked up): as the sequence (Q9NYV4 whole entry, looked up) above

[3] = target: T1, Protein cereblon/Cyclin-K/Cyclin-dependent kinase 12; assay: Protac activity at human CRBN/CDK12/CycK in human Bel-7402 (CRBN/KO) cells assessed as degradation of CDK12 measured after 24 hrs by Western blotting assay; assay type: cell-based
[4] = target: T2, CDK12/Cyclin K (Homo sapiens); assay: Protac activity at human CDK12/CycK in human Bel-7402 (CRBN/WT) cells assessed as degradation of CDK12 measured after 24 hrs by Western blotting assay; assay type: cell-based
MDA-MB-231 [5] = assay: Antiproliferative activity against human MDA-MB-231 cells at 3 uM for 10 days by SRB staining based clone formation assay relative to control; assay type: functional; conditions: MDA-MB-231, 240 h, time 10 day
MDA-MB-231 [6] = assay: Antiproliferative activity against human MDA-MB-231 cells at 1 uM for 10 days by SRB staining based clone formation assay relative to control; assay type: functional; conditions: MDA-MB-231, 240 h, time 10 day

Compound | Activity [1] | Activity [2] | Activity [3] | Activity [4] | inhibition at 3 µM (MDA-MB-231 [5]) [%] | inhibition at 1 µM (MDA-MB-231 [6]) [%]
Cn1cc(-n2cnc3c(NCc4nc5cc(Cl)c(Cl)cc5[nH]4)nc(N4CCOCC4)nc32)cn1 | Active | Active | Active | Active | – | –
O=C(c1cc(Cc2n[nH]c(=O)c3ccccc23)ccc1F)N1CCN(C(=O)C2CC2)CC1 [OLAPARIB] | – | – | – | – | 98 | 12.4
